Source: ChEMBL document CHEMBL1201862, “PubChem BioAssay data set” (2004)
Active and inactive are the calls of the source.

Tests used:
[1] = Luminescence Cell-Based Dose Response HTS to Identify Activators of Luciferase Translation or Activity in H4 […] Cells. [Related pubchem assays: 1829 (Project Summary), 1814 (Primary HTS)]; format: functional
[2] = tested on: H4; test: Luminescence Cell-Based Dose Response HTS to Identify Activators of 5'UTR Stem-Loop Driven Prion Protein mRNA Translation in H4 Neuroglioblastoma Cells. [Related pubchem assays: 1829 (Project Summary), 1814 (Primary HTS)]; format: functional; conditions: Homo sapiens
[3] = target: Cytochrome P450 2C19 (Homo sapiens, UniProt P33261); test: Cytochrome panel assay with activity outcomes. Panel member name: p450-cyp2c19 Compounds with AC50 equal or less than 10 uM are considered active; format: functional; conditions: read-out: AC50
[4] = target: Cytochrome P450 2C9 (Homo sapiens, UniProt P11712)
[5] = inhibitors of firefly luciferase expression or activity, dose response, H4 neuroglioma cells, luminescence (AID 1990); format: functional, cell-based
[6] = Luminescence Cell-Based Dose Response HTS to Identify Inhibitors of 5'UTR Stem-Loop Driven Prion Protein mRNA Translation in H4 Neuroglioblastoma Cells. [Related pubchem assays: 1827 (Project Summary), 1813 (Primary HTS)]; format: functional
[7] = inhibitors of SNCA 5'UTR-driven reporter translation, confirmation, H4 neuroglioma cells, luminescence (AID 1988); format: functional, cell-based
[8] = target: T1, Rac GTPase-activating protein 1 (Homo sapiens, UniProt Q9H0H5); test: MgcRacGAP GTPase-activating activity inhibitors, confirmation, biochemical, ADP Hunter fluorescence, primary and confirmatory (AID 624330); format: functional
T1 sequence (Q9H0H5 whole entry): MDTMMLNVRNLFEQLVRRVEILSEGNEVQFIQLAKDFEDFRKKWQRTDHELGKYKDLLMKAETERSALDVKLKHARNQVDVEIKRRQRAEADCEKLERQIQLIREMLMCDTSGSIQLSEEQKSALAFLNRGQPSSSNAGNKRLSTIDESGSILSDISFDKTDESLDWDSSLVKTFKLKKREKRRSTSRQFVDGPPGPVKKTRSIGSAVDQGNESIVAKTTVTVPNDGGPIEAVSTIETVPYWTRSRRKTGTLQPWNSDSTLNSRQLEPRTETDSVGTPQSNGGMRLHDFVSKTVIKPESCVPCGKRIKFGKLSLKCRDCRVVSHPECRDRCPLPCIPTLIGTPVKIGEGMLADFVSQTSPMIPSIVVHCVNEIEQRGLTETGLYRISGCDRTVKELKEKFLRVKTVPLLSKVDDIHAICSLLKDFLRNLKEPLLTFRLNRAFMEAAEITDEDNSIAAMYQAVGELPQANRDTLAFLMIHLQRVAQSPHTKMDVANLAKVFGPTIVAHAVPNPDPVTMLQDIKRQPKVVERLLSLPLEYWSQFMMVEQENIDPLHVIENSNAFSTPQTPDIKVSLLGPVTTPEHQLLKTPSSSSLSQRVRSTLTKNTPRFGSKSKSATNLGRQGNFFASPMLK

[9] = target: T2, Corticotropin-releasing factor receptor 2/Corticotropin-releasing factor-binding protein (Homo sapiens, UniProt P24387+Q13324); test: activators of CRF receptor 2 with binding protein – uHTS hits, confirmation (AID 602473); format: functional; conditions: read-out: EC50_Mean
T2 sequence (Q13324 whole entry): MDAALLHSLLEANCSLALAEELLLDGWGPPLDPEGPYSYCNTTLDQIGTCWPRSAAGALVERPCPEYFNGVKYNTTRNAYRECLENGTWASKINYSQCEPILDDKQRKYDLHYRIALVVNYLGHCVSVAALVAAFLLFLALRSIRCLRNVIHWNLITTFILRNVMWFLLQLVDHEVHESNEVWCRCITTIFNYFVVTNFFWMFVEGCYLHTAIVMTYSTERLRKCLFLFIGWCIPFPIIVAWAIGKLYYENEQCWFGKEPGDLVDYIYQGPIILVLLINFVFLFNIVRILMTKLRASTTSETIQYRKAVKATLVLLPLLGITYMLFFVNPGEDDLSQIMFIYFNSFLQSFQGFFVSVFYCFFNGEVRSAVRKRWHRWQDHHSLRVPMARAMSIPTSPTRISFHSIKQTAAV
T2 sequence (P24387 whole entry): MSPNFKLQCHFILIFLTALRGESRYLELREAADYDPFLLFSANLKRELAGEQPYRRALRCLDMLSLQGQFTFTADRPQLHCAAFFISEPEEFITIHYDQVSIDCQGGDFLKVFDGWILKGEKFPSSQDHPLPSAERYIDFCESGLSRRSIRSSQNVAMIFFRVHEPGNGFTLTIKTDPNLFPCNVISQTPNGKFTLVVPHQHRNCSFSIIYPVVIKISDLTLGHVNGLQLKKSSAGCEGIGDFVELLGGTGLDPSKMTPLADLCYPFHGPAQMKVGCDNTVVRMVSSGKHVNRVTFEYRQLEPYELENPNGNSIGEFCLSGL

[10] = target: T3, Cytochrome P450 1A2 (Homo sapiens, UniProt P05177);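 also: PubChem cytochrome P450 panel assay, CYP1A2 panel member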
T3 sequence (P05177 whole entry): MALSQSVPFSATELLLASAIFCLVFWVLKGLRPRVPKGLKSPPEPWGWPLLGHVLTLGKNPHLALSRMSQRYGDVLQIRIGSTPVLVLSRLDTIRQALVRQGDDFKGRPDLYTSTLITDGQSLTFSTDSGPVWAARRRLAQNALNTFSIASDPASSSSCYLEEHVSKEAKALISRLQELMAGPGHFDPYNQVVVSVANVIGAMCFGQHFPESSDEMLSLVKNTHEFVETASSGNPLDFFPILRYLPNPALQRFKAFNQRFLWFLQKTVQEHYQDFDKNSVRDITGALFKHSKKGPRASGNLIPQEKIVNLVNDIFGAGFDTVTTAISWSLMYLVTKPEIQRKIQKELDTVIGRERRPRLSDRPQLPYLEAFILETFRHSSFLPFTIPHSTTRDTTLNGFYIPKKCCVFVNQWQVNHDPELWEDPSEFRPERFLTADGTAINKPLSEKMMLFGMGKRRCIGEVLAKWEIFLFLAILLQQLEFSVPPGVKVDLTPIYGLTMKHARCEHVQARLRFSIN

[11] = tested on: Streptococcus sp. 'group A'; test: growth inhibition of control SK(-) GAS strain, dose response, counter-screen for streptokinase expression inhibitor project, luminescence, kanamycin, BacTiterGlo, confirmation (AID 1900); format: functional, organism-based
[12] = tested on: Streptococcus; test: Group A Streptococcus viability loss, dose response, counter-screen for streptokinase expression inhibitor project, luminescence, BacTiterGlo (AID 1915); format: functional, organism-based;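 also: potency for reduction of bacterial viability or growth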
[13] = growth suppression of PTEN-null colon cells, dose response, cell-based, HCT116 PTEN knockout (AID 1047); format: functional;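 also: HCT116 colon tumor cells with PTEN knocked out; cells exposed to compound for 60 hours before readout; potency for loss of cell viability measured by luminescence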
[14] = growth suppression of beta-catenin-knockout colon cells, dose response, cell-based, HCT116, human colon tumor (AID 1045); format: functional;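 also: HCT116 colon tumor cells with beta catenin knocked out; cells exposed to compound for 60 hours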
[15] = Shn3 3'UTR reporter inhibitors, dose response, cell-based, Clone20 osteoblasts, firefly luciferase, cherry-picked (AID 624132); format: functional;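 also: firefly luciferase luminescence from reporter carrying the Shn3 3'UTR in osteoblasts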

Sequence of Cytochrome P450 2C9 (P11712 whole entry): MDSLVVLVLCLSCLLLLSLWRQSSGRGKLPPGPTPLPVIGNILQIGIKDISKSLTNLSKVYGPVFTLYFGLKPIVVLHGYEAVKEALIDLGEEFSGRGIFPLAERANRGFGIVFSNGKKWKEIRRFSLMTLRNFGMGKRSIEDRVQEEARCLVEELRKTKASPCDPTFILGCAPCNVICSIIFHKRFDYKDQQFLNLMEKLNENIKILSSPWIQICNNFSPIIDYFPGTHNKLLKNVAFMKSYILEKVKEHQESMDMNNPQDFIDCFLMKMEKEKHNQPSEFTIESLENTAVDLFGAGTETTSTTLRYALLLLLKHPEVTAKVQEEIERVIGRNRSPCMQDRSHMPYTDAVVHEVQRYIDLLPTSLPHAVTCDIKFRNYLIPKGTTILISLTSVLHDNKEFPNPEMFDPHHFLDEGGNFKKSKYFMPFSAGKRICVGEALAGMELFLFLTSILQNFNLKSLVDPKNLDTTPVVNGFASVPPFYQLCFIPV
Sequence of Cytochrome P450 2C19 (P33261 whole entry): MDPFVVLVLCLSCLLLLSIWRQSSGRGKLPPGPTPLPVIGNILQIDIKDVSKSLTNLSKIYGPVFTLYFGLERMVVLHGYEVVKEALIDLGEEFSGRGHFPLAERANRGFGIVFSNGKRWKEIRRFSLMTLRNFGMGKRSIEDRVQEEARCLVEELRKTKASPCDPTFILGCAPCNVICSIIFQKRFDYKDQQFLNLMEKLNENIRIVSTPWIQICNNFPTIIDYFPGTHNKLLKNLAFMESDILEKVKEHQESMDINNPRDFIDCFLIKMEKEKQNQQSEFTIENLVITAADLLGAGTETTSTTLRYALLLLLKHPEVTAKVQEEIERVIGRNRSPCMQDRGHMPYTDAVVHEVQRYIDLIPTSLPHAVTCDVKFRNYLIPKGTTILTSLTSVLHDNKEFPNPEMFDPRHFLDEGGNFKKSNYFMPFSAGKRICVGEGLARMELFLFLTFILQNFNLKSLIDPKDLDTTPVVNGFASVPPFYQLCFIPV

## Cc1nc2nc(-c3ccc(Cl)cc3)nn2c(C)c1Cl
[1]
  EC50: 0.454 µM (active)
[2]
  EC50: 5.95 µM (active)
[3]
  AC50: 39.8 µM (inconclusive)
[4]
  AC50: 20 µM (inconclusive)

## Cc1cc(C)c(NC(=O)CSc2nc(COc3ccccc3)nc3ccccc23)c(C)c1
[5]
  EC50: > 120 µM (not active)
[6]
  EC50: 16.6 µM (active)
[7]
  EC50: > 120 µM (not active)

## COc1ccc(CN2CCC(N3CC(C)OC(C)C3)CC2)c(OC)c1OC (stereo not drawn)
[8]
  IC50: 66 µM (active)

## O=C(NC(=S)Nc1ccc(Oc2ccc(Cl)cc2)cc1)c1ccccc1
[3]
  AC50: 7.08 µM (inconclusive)
[4]
  AC50: 2.82 µM (inconclusive)

## CCC(=O)Nc1cccc(-n2nnnc2SCC(=O)N2CCCCC2)c1
[9]
  EC50: 11.7 µM (active)

## CN1CCN(c2ncc3nc(-c4cccs4)c(=O)n(CCc4ccccc4)c3n2)CC1
[10]
  AC50: 2.51 µM (inconclusive)

## CCC1CCCCN1CC(=O)c1c(C)[nH]c2ccccc12 (stereo not drawn)
[9]
  EC50: 22.6 µM (active)

## COc1ccc(CNc2ccc(N3CCN(C(C)=O)CC3)cc2)cc1OC
[8]
  IC50: 12 µM (active)

## O=C(Nc1ccccc1)N1CC[C@@]2(CCCN(C(=O)c3ccco3)C2)C1
[10]
  AC50: 10 µM (inconclusive)

## O=C1[C@H]2C(c3ccccc3)=NN(c3ccccc3)[C@H]2C(=O)N1c1ccccc1
[11]
  EC50: 0.614 µM (active)
[12]
  EC50: 3.62 µM (active)

## CCC(C)(C)n1nnnc1C(c1cc2cc(C)cc(C)c2nc1O)N1CCN(C(=O)c2ccco2)CC1 (stereo not drawn)
[13]
  EC50: 28.4 µM (active)
[14]
  EC50: 30.2 µM (active)

## OC(COCC1COc2ccccc2O1)CN1CCN(c2ccccc2F)CC1 (stereo not drawn)
[4]
  AC50: 20 µM (inconclusive)

## CCOC(=O)Nc1ccc(OC(=O)Oc2ccc(NC(=O)OCC)cc2)cc1
[8]
  IC50: 31.8 µM (active)

## CCCCn1c(SCC(=O)Nc2cc(NC(=O)c3ccco3)ccc2C)nc2ccccc2c1=O
[13]
  EC50: 14.4 µM (active)
[14]
  EC50: 19.7 µM (active)

## Cc1ccc(S(=O)(=O)C(C#N)c2nc3ccccc3nc2N2CCCC2)cc1 (stereo not drawn)
[9]
  EC50: > 53 µM (inactive)

## Cc1nc2cncnc2n(C2CC2)c1=O
[4]
  AC50: 7.94 µM (inconclusive)

## O=C(c1cc(C2CC2)nc2ccc(Br)cc12)N1N=C(C(F)F)CC1(O)C(F)F (stereo not drawn)
[13]
  EC50: 10.5 µM (active)
[14]
  EC50: 13.9 µM (active)

## COC(=O)c1c(-c2ccc3ccccc3c2)csc1NC(=O)Cc1ccc(OC)c(OC)c1
[10]
  AC50: 11.2 µM (inconclusive)

## Nc1ccc(N2CCCC2)c(S(=O)(=O)Nc2cccc(C(F)(F)F)c2)c1
[8]
  IC50: 120 µM (active)

## Cc1ccc(S(=O)(=O)NCCc2cc3ccc(C)cc3nc2O)cc1
[15]
  AC50: > 70 µM (inactive)

## CC(=O)OC[C@@H]1O[C@H](CCO/N=C(\C)CCC(=O)OC[C@@H]2O[C@H](C#Cc3ccccc3)C=C[C@@H]2Oc2ccc(C)cc2)C=C[C@@H]1OC(C)=O
[4]
  AC50: 6.31 µM (inconclusive)

## Cn1cccc1C(=O)N1CCC2(CC1)CCN(c1ccccn1)CC2
[10]
  AC50: 15.8 µM (inconclusive)
[4]
  AC50: 31.6 µM (inconclusive)
